Data: ChEMBL document CHEMBL3272024, “(Acylaryloxy)acetic acid diuretics. 1. (2-Alkyl- and 2,2-dialkyl-1-oxo-5-indanyloxy)acetic acids” (J Med Chem, 1977)

Assays:
Pan troglodytes [1] = test: Natriuretic activity in chimpanzee assessed as change sodium level in urine measured per min at 5 mg/kg, po; type: functional
Pan troglodytes [2] = test: Ratio of change in urate excretion to change in inulin excretion in chimpanzee in urine at 5 mg/kg, po; type: functional
[3] = Acute toxicity in iv dosed mouse; type: organism-based; conditions: in vivo
Rattus norvegicus = test: Natriuretic activity in po dosed Charles River rat assessed as sodium level in urine per cage collected 0.5 hrs interval relative to 2-(3,6,7-trimethyl-1-oxo-2,3-dihydro-1H-inden-5-yloxy)acetic acid; type: functional
Canis familiaris [4] = test: Diuretic activity in dog assessed as potassium level in urine collected for 2 hrs at 5 mg/kg, iv over a period of 5 mins (reference value: 5 to 30 microEq); type: functional, Canis lupus familiaris
Canis familiaris [5] = test: Diuretic activity in dog assessed as chloride level in urine collected for 2 hrs at 5 mg/kg, iv over a period of 5 mins (reference value: 1 to 10 microEq); type: functional, Canis lupus familiaris
Canis familiaris [6] = test: Diuretic activity in dog assessed as sodium level in urine collected for 2 hrs at 5 mg/kg, iv over a period of 5 mins (reference value: 5 to 30 microEq); type: functional, Canis lupus familiaris
Canis familiaris [7] = test: Diuretic activity in dog assessed as urine volume collected for 2 hrs at 5 mg/kg, iv over a period of 5 mins (reference value: 1 to 2 mL); type: functional, Canis lupus familiaris
Canis familiaris [8] = test: Diuretic activity in dog assessed as urine volume collected for 2 hrs at 1.5 mg/kg, iv over a period of 5 mins (reference value: 1 mL); type: functional, Canis lupus familiaris
Canis familiaris [9] = test: Diuretic activity in dog assessed as potassium level in urine collected for 2 hrs at 1.5 mg/kg, iv over a period of 5 mins (reference value: 18 microEq); type: functional, Canis lupus familiaris
Canis familiaris [10] = test: Diuretic activity in dog assessed as sodium level in urine collected for 2 hrs at 1.5 mg/kg, iv over a period of 5 mins (reference value: 29 microEq); type: functional, Canis lupus familiaris
Canis familiaris [11] = test: Diuretic activity in dog assessed as chloride level in urine collected for 2 hrs at 1.5 mg/kg, iv over a period of 5 mins (reference value: 1 microEq); type: functional, Canis lupus familiaris

SMILES | Activity (Pan troglodytes [1]) [uEq] | Ratio (Pan troglodytes [2]) | also measured
CCC1C(=O)c2c(cc(OCC(=O)O)c(Cl)c2Cl)C1c1ccccc1 (stereo unspecified) | 223 | 0.28 | 
CCC1C(=O)c2c(cc(OCC(=O)O)c(Cl)c2Cl)C1c1cccnc1 (stereo unspecified) | 25 | 0.07 | 
O=C(O)COc1cc2c(c(Cl)c1Cl)C(=O)C(C1CCCC1)C2 (single isomer, unassigned; (-)) |  |  | Activity (Pan troglodytes [1]; 5 mg/kg): 292 uEq; Ratio (Pan troglodytes [2]; 5 mg/kg): 0.1
O=C(O)COc1cc2c(c(Cl)c1Cl)C(=O)C(C1CCCC1)C2 (single isomer, unassigned; (+)) |  |  | Activity (Pan troglodytes [1]; 5 mg/kg): 300 uEq; Ratio (Pan troglodytes [2]; 5 mg/kg): 0.26
O=C(O)COc1cc2c(c(Cl)c1Cl)C(=O)C(C1CCCC1)C2c1ccccc1 (stereo unspecified) | 22 | 0.25 | 
CC1(C)Cc2cc(OCC(=O)O)c(Cl)c(Cl)c2C1=O | 535 | 0.04 | LD50 [3]: 268 mg/kg; Ratio (Rattus norvegicus): 3.9
CC(C)C1(C)Cc2cc(OCC(=O)O)c(Cl)c(Cl)c2C1=O (racemic) |  |  | Activity (Canis familiaris [4]): 35 uEq; Activity (Canis familiaris [5]): 218 uEq; LD50 [3]: 244 mg/kg; Activity (Pan troglodytes [1]; 5 mg/kg): 506 uEq; Activity (Canis familiaris [6]): 185 uEq; Ratio (Pan troglodytes [2]; 5 mg/kg): 0.03; Ratio (Rattus norvegicus): 53; Activity (Canis familiaris [7]): 2 mL
CC(C)C1Cc2cc(OCC(=O)O)c(Cl)c(Cl)c2C1=O (stereo unspecified) | 649 | 0.18 | Activity (Canis familiaris [4]): 44 uEq; Activity (Canis familiaris [5]): 330 uEq; LD50 [3]: 505 mg/kg; Activity (Canis familiaris [6]): 281 uEq; Ratio (Rattus norvegicus): 3.2; Activity (Canis familiaris [7]): 4 mL
CC(C)C1(C)Cc2cc(OCC(=O)O)c(Cl)c(Cl)c2C1=O (single isomer, unassigned; (+)) |  |  | Activity (Pan troglodytes [1]; 5 mg/kg): 1593 uEq; Ratio (Pan troglodytes [2]; 5 mg/kg): 0.41
CC(C)C1(C)Cc2cc(OCC(=O)O)c(Cl)c(Cl)c2C1=O (single isomer, unassigned; enantiomer 2) |  |  | Activity (Pan troglodytes [1]; 5 mg/kg): 992 uEq; Ratio (Pan troglodytes [2]; 5 mg/kg): 0.06
CC1(C2CCCC2)Cc2cc(OCC(=O)O)c(Cl)c(Cl)c2C1=O (single isomer, unassigned; enantiomer 1) |  |  | Activity (Pan troglodytes [1]; 5 mg/kg): 325 uEq; Ratio (Pan troglodytes [2]; 5 mg/kg): 0.1
CCC1C(=O)c2c(cc(OCC(=O)O)c(Cl)c2Cl)C1c1ccccn1 (stereo unspecified) | 0 | 0.08 | 
CCC1(C)C(=O)c2c(cc(OCC(=O)O)c(Cl)c2Cl)C1c1ccccc1 (stereo unspecified) | 0 | 0 | 
NS(=O)(=O)c1cc2c(cc1Cl)NCNS2(=O)=O [HYDROCHLOROTHIAZIDE] | 144 |  | Activity (Canis familiaris [4]): 33 uEq; Activity (Canis familiaris [5]): 156 uEq; Activity (Canis familiaris [6]): 166 uEq; Activity (Canis familiaris [7]): 3 mL
CC1Cc2cc(OCC(=O)O)c(Cl)c(Cl)c2C1=O (stereo unspecified) |  |  | LD50 [3]: 354 mg/kg; Ratio (Rattus norvegicus): 1
CC(C)(C)C1Cc2cc(OCC(=O)O)c(Cl)c(Cl)c2C1=O (stereo unspecified) | 106 | 0 | 
CC12CCCCC1c1cc(OCC(=O)O)c(Cl)c(Cl)c1C2=O (stereo unspecified) | 406 | 0.39 | 
O=C1c2c(cc(OCc3nnn[nH]3)c(Cl)c2Cl)CC1C1CCCC1 (stereo unspecified) | 56 | 0.18 | 
NS(=O)(=O)c1cc(C(=O)O)c(NCc2ccco2)cc1Cl [FUROSEMIDE] | 1035 | -0.02 | Activity (Canis familiaris [8]): 3 mL; Activity (Canis familiaris [9]): 141 uEq; Activity (Canis familiaris [10]): 960 uEq; Activity (Canis familiaris [11]): 1081 uEq
CC(C)C1(C)Cc2cc(OCc3nnn[nH]3)c(Cl)c(Cl)c2C1=O (stereo unspecified) | 174 | 0.17 | 
CC1(C)C(=O)c2c(cc(OCC(=O)O)c(Cl)c2Cl)C1c1ccccc1 (stereo unspecified) | 22 | 0.1 | 
O=C(O)COc1cc2c(c(Cl)c1Cl)C(=O)C(C1CCCCC1)C2 (stereo unspecified) | 310 | 0.21 | 
Cc1c(OCC(=O)O)cc2c(c1Cl)C(=O)C(C(C)C)C2 (stereo unspecified) | 185 | 0.07 | Activity (Canis familiaris [4]): 50 uEq; Activity (Canis familiaris [5]): 204 uEq; Activity (Canis familiaris [6]): 218 uEq; Activity (Canis familiaris [7]): 3 mL
CC1C(=O)c2c(cc(OCC(=O)O)c(Cl)c2Cl)C1c1ccccc1 (stereo unspecified) | 64 | 0.12 | 
Cc1c(OCC(=O)O)cc2c(c1C)C(=O)C(C(C)C)C2 (stereo unspecified) | 153 | 0.15 | Activity (Canis familiaris [4]): 15 uEq; Activity (Canis familiaris [5]): 100 uEq; Activity (Canis familiaris [6]): 154 uEq; Activity (Canis familiaris [7]): 2 mL

SMILES | Activity (Pan troglodytes [1]) [uEq] | Ratio (Pan troglodytes [2]) | also measured
CCC1C(=O)c2c(cc(OCc3nnn[nH]3)c(Cl)c2Cl)C1c1ccccc1 (stereo unspecified) | 5 | 0.06 | 
Cc1c(OCC(=O)O)cc2c(c1C)C(=O)C(C1CCCC1)C2 (stereo unspecified) | 0 | 0.43 | 
CCC1(C)Cc2cc(OCC(=O)O)c(Cl)c(Cl)c2C1=O (stereo unspecified) | 520 | 0.07 | Activity (Canis familiaris [4]): 62 uEq; Activity (Canis familiaris [5]): 450 uEq; LD50 [3]: 239 mg/kg; Activity (Canis familiaris [6]): 360 uEq; Ratio (Rattus norvegicus): 15; Activity (Canis familiaris [7]): 4 mL
CC1(Cc2ccccc2)Cc2cc(OCC(=O)O)c(Cl)c(Cl)c2C1=O (stereo unspecified) | 251 | 0.18 | 
Cc1c(OCC(=O)O)cc2c(c1Cl)C(=O)C(C1CCCC1)C2 (stereo unspecified) | 141 | 0.14 | 
Cc1c(OCC(=O)O)cc2c(c1Cl)C(=O)C(C)(C1CCCC1)C2 (stereo unspecified) | 86 | 0.24 | 
CCCC1(CC)Cc2cc(OCC(=O)O)c(Cl)c(Cl)c2C1=O (stereo unspecified) | 341 | 0.05 | 
O=C(O)COc1cc2c(c(Cl)c1Cl)C(=O)C1(CCCC1)C2 | 624 | 0.11 | Activity (Canis familiaris [4]): 47 uEq; Activity (Canis familiaris [5]): 254 uEq; Activity (Canis familiaris [6]): 330 uEq; Activity (Canis familiaris [7]): 5 mL
O=C(O)COc1cc2c(c(Cl)c1Cl)C(=O)C(CC1CCCC1)C2 (stereo unspecified) | 105 | 0.05 | 
C=CCC1(C)Cc2cc(OCC(=O)O)c(Cl)c(Cl)c2C1=O (stereo unspecified) | 81 | 0.01 | Activity (Canis familiaris [4]): 37 uEq; Activity (Canis familiaris [5]): 171 uEq; Activity (Canis familiaris [6]): 175 uEq; Activity (Canis familiaris [7]): 4 mL
CCCCC1Cc2cc(OCC(=O)O)c(Cl)c(Cl)c2C1=O (stereo unspecified) | 126 | 0.11 | 
CC1c2cc(OCc3nnn[nH]3)c(Cl)c(Cl)c2C(=O)C1C1CCCC1 (stereo unspecified) | 19 | 0.07 | 
O=C(O)COc1cc2c(c(Cl)c1Cl)C(=O)C1CCCCC21 (stereo unspecified) | 85 | 0.2 | 
CCCC1Cc2cc(OCC(=O)O)c(Cl)c(Cl)c2C1=O (stereo unspecified) |  | 0.19 | 
CC(C)C1Cc2cc(OCc3nnn[nH]3)c(Cl)c(Cl)c2C1=O (stereo unspecified) | 42 | 0.07 | 
O=C1c2c(cc(OCc3nnn[nH]3)c(Cl)c2Cl)CC12CCCCC2 | 0 | 0.02 | 
CCC1(C2CCCC2)Cc2cc(OCC(=O)O)c(Cl)c(Cl)c2C1=O (stereo unspecified) | 231 | 0.12 | 
CC(C)C1C(=O)c2c(cc(OCC(=O)O)c(Cl)c2Cl)C1c1ccccc1 (stereo unspecified) | 240 | 0.25 | 
O=C(O)COc1cc2c(c(Cl)c1Cl)C(=O)C(C1CCCC1)C2 (stereo in doubt; 4p) |  |  | Activity (Canis familiaris [4]): 37 uEq; Activity (Canis familiaris [5]): 5 uEq; LD50 [3]: 222 mg/kg; Activity (Pan troglodytes [1]; 5 mg/kg): 223 uEq; Activity (Canis familiaris [6]): 20 uEq; Ratio (Pan troglodytes [2]; 5 mg/kg): 0.18; Ratio (Rattus norvegicus): 1.8; Activity (Canis familiaris [7]): 2 mL
O=C(O)COc1cc2c(c(Cl)c1Cl)C(=O)C1(CCCCC1)C2 | 489 | 0.05 | 
O=C1c2c(cc(OCc3nnn[nH]3)c(Cl)c2Cl)CC12CCCC2 | 0 | 0.05 | 
CC1(C2CCCC2)Cc2cc(OCC(=O)O)c(Cl)c(Cl)c2C1=O (racemic) |  |  | Activity (Canis familiaris [4]): 48 uEq; Activity (Canis familiaris [5]): 478 uEq; LD50 [3]: 213 mg/kg; Activity (Pan troglodytes [1]; 5 mg/kg): 425 uEq; Activity (Canis familiaris [6]): 454 uEq; Ratio (Pan troglodytes [2]; 5 mg/kg): 0.2; Ratio (Rattus norvegicus): 5.4; Activity (Canis familiaris [7]): 4 mL
CC1(C2CCCC2)Cc2cc(OCC(=O)O)c(Cl)c(Cl)c2C1=O (single isomer, unassigned; enantiomer 2) |  |  | Activity (Pan troglodytes [1]; 5 mg/kg): 268 uEq; Ratio (Pan troglodytes [2]; 5 mg/kg): 0.17
CCC1Cc2cc(OCC(=O)O)c(Cl)c(Cl)c2C1=O (stereo unspecified) | 427 | 0.09 | LD50 [3]: 245 mg/kg; Ratio (Rattus norvegicus): 2.8
CCC1Cc2cc(OCc3nnn[nH]3)c(Cl)c(Cl)c2C1=O (stereo unspecified) | 28 | 0.11 | 
